In the OligoGym collection:
Only the 19 paired bases of each siRNA are shown; overhangs and chemistry are not given here.
Note: test concentration or dose not given here.

Each substance was assayed against LMNA (assay: five studies, different assays). Conditions: siRNA.
“sense UCUGGUCACCCGCUCCUAC / antisense GUAGGAGCGGGUGACCAGA” showed a target inhibition of 83%. “sense GUAUAAGAAGGAGCUGGAG / antisense CUCCAGCUCCUUCUUAUAC” was tested, and the target inhibition was 96%. “sense GUUAUUUUCUACAGUGGUU / antisense AACCACUGUAGAAAAUAAC” was tested, and the target inhibition was 98%. “sense CUGGAGAAGACUUAUUCUG / antisense CAGAAUAAGUCUUCUCCAG” showed a target inhibition of 98%. “sense GCUGGAGAAGACUUAUUCU / antisense AGAAUAAGUCUUCUCCAGC” showed a target inhibition of 96%. “sense AUAAGAAGGAGCUGGAGAA / antisense UUCUCCAGCUCCUUCUUAU” gave a target inhibition of 96%. In the case of “sense GCUGGCCCUGGACAUGGAG / antisense CUCCAUGUCCAGGGCCAGC”, the target inhibition is reported as 79%. Substance “sense AAGGAGCUGGAGAAGACUU / antisense AAGUCUUCUCCAGCUCCUU” has a target inhibition of 91%. “sense GUGGCCAUGCGCAAGCUGG / antisense CCAGCUUGCGCAUGGCCAC” was tested, and the target inhibition was 74%. In the case of “sense GAAGUGGCCAUGCGCAAGC / antisense GCUUGCGCAUGGCCACUUC”, the target inhibition is reported as 70%. “sense CUGCUCUCAGUGAGAAGCG / antisense CGCUUCUCACUGAGAGCAG” showed a target inhibition of 88%. For “sense CUGGACUUCCAGAAGAACA / antisense UGUUCUUCUGGAAGUCCAG”, the target inhibition was 98%. Work on “sense GAAGGAGCUGGAGAAGACU / antisense AGUCUUCUCCAGCUCCUUC” yielded a target inhibition of 93%. Work on “sense GCCAAAGAAAAAUAACCCU / antisense AGGGUUAUUUUUCUUUGGC” yielded a target inhibition of 96%. In the case of “sense CAGUAUAAGAAGGAGCUGG / antisense CCAGCUCCUUCUUAUACUG”, the target inhibition is reported as 95%. “sense AGCUGGAGAAGACUUAUUC / antisense GAAUAAGUCUUCUCCAGCU” showed a target inhibition of 96%. In the case of “sense UAUAAGAAGGAGCUGGAGA / antisense UCUCCAGCUCCUUCUUAUA”, the target inhibition is reported as 90%. In the case of “sense AGUAUAAGAAGGAGCUGGA / antisense UCCAGCUCCUUCUUAUACU”, the target inhibition is reported as 95%. With “sense AGCGCAAACUGGAGUCCAC / antisense GUGGACUCCAGUUUGCGCU” the target inhibition was 98%. With “sense GGAGAAGACUUAUUCUGCC / antisense GGCAGAAUAAGUCUUCUCC” the target inhibition was 95%. Work on “sense GGUGGUGACGAUCUGGGCU / antisense AGCCCAGAUCGUCACCACC” yielded a target inhibition of 92%. For “sense AGCAGUAUAAGAAGGAGCU / antisense AGCUCCUUCUUAUACUGCU”, the target inhibition was 84%. “sense AGGAGCUGGAGAAGACUUA / antisense UAAGUCUUCUCCAGCUCCU” was tested, and the target inhibition was 98%. Work on “sense GGCACAGAACACCUGGGGC / antisense GCCCCAGGUGUUCUGUGCC” yielded a target inhibition of 86%. With “sense GGAGGACCUGCAGGAGCUC / antisense GAGCUCCUGCAGGUCCUCC” the target inhibition was 83%. Work on “sense GAGCUGGAGAAGACUUAUU / antisense AAUAAGUCUUCUCCAGCUC” yielded a target inhibition of 96%. For “sense GCUGGACAAUGCCAGGCAG / antisense CUGCCUGGCAUUGUCCAGC”, the target inhibition was 84%. With “sense UAAGAAGGAGCUGGAGAAG / antisense CUUCUCCAGCUCCUUCUUA” the target inhibition was 67%. Work on “sense GCUUCGAGACCUGGAGGAC / antisense GUCCUCCAGGUCUCGAAGC” yielded a target inhibition of 96%.

The substances below were run against ICAM1 (assay: five studies, different assays). Conditions: siRNA.
Substance “sense UCAGAGUUGCAACCUCAGC / antisense GCUGAGGUUGCAACUCUGA” has a target inhibition of 1%. Work on “sense CCUCUUGGCAGCCAGUGGG / antisense CCCACUGGCUGCCAAGAGG” yielded a target inhibition of 18%. “sense GUCAUCAUCACUGUGGUAG / antisense CUACCACAGUGAUGAUGAC” showed a target inhibition of 35%. “sense GGUCCUAGAGGUGGACACG / antisense CGUGUCCACCUCUAGGACC” showed a target inhibition of 10%. “sense GAUUCUGACGAAGCCAGAG / antisense CUCUGGCUUCGUCAGAAUC” was tested, and the target inhibition was -10%. With “sense AAGUCUAGCCUGAUGAGAG / antisense CUCUCAUCAGGCUAGACUU” the target inhibition was 50%.
